Laboratory results reported in patent US10538498B2, “1,3,4-oxadiazole sulfonamide derivative compounds as histone deacetylase 6 inhibitor, and the pharmaceutical composition comprising the same” (Chong Kun Dang Pharmaceutical Corp., priority 2015, dated 2020).

Molecular target: T1, human recombinant HDAC6 (Homo sapiens, UniProt Q9UBN7)
T1 construct: purchased Calbiochem 382180
T1 sequence (Q9UBN7 1-1215): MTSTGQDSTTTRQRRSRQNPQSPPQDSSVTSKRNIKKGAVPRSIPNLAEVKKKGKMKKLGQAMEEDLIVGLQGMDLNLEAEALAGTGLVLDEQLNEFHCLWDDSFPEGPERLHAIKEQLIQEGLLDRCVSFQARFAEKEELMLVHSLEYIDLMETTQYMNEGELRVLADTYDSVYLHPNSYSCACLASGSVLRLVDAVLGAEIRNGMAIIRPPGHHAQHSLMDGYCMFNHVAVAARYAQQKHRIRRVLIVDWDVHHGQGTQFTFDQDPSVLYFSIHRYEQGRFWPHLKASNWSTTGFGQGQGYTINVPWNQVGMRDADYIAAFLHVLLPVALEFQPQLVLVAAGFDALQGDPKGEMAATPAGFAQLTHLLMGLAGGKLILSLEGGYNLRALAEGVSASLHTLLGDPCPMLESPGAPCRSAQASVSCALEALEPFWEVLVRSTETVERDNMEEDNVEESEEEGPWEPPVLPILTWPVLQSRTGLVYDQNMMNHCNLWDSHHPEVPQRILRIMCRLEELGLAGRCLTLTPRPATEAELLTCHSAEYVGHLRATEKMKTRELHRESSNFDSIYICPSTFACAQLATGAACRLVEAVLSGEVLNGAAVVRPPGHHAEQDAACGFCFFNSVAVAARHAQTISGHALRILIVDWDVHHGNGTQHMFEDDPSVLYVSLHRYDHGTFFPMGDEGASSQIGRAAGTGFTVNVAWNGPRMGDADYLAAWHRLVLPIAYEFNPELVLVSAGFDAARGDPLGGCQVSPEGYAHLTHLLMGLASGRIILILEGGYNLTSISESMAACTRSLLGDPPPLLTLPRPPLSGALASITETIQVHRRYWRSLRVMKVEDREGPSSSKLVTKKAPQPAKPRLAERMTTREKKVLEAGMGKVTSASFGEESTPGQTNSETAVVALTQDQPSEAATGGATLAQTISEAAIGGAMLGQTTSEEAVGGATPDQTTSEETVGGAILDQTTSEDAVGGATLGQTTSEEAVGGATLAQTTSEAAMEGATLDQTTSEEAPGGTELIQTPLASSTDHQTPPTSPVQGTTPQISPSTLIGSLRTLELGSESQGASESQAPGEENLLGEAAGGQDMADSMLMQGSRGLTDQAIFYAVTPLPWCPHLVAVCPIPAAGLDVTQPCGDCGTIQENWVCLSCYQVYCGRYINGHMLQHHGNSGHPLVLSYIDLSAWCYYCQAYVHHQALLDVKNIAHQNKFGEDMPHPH
Test: HDAC6 enzyme activity inhibition assay (HDAC Fluorimetric Drug Discovery Kit)
Format: biochemical
Settings: for HDAC6 selectivity (fold): HDAC1 vs HDAC6; for IC50: same protocol as the HDAC1 enzyme activity test
In short: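 5-fold compound dilutions + 0.3 μg enzyme + 10 μM Fluor de Lys-SIRT1 substrate, 60 min, 30° C; Developer II 30 min; fluorescence Ex 360/Em 460; IC50 by curve fit.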

| SMILES | HDAC6 selectivity (fold) | IC50 |
| --- | --- | --- |
| Cc1cccc(N(Cc2ccc(-c3nnc(C(F)F)o3)cn2)S(=O)(=O)C2CCN(C3COC3)CC2)c1 [Compound 11684, N-((5-(5-(difluoromethyl)-1,3,4-oxadiazol-2-yl)pyridin-2-yl)methyl)-1-(oxetan-3-yl)-N-(m-tolyl)piperidine-4-sulfonamide] | 6250 fold | 16 nM |
| CN(C)CCCS(=O)(=O)N(Cc1ccc(-c2nnc(C(F)F)o2)cc1)c1ccccc1 [Compound 11685, N-(4-(5-(difluoromethyl)-1,3,4-oxadiazol-2-yl)benzyl)-3-(dimethylamino)-N-phenylpropane-1-sulfonamide] | 5882 fold | 17 nM |
| Cc1cccc(N(Cc2ccc(-c3nnc(C(F)F)o3)cc2)S(=O)(=O)C2CCN(C3CCC(F)(F)CC3)CC2)c1 [Compound 11694, 1-(4,4-difluorocyclohexyl)-N-(4-(5-(difluoromethyl)-1,3,4-oxadiazol-2-yl)benzyl)-N-(m-tolyl)piperidine-4-sulfonamide] | 215 fold | 464 nM |
| Cc1cccc(N(Cc2ccc(-c3nnc(C(F)F)o3)cc2)S(=O)(=O)C2CCN([C@H]3CC[C@H](C(F)(F)F)CC3)CC2)c1 [Compound 11697, N-(4-(5-(difluoromethyl)-1,3,4-oxadiazol-2-yl)benzyl)-N-(m-tolyl)-1-((1r,4r)-4-(trifluoromethyl)cyclohexyl)piperidine-4-sulfonamide] | 101 fold | 988 nM |
| Cc1cccc(N(Cc2ccc(-c3nnc(C(F)F)o3)cc2)S(=O)(=O)C2CCN([C@H]3CC[C@@H](C(F)(F)F)CC3)CC2)c1 [Compound 11698, N-(4-(5-(difluoromethyl)-1,3,4-oxadiazol-2-yl)benzyl)-N-(m-tolyl)-1-((1s,4s)-4-(trifluoromethyl)cyclohexyl)piperidine-4-sulfonamide] | 151 fold | 661 nM |
| O=S(=O)(CCCN1CC[C@H](F)C1)N(Cc1ccc(-c2nnc(C(F)F)o2)cc1)c1ccccc1 [Compound 11705, (S)—N-(4-(5-(difluoromethyl)-1,3,4-oxadiazol-2-yl)benzyl)-3-(3-fluoropyrrolidin-1-yl)-N-phenylpropane-1-sulfonamide] | 637 fold | 157 nM |
| CCS(=O)(=O)N(Cc1ccc(-c2nnc(C(F)F)o2)cn1)c1cccc2c1CN(C)C2 [Compound 11712, N-((5-(5-(difluoromethyl)-1,3,4-oxadiazol-2-yl)pyridin-2-yl)methyl)-N-(2-methylisoindolin-4-yl)ethanesulfonamide] | 264 fold | 378 nM |
| O=S(=O)(CCCN1CCC(F)(F)C1)N(Cc1ccc(-c2nnc(C(F)F)o2)cn1)c1ccccc1 [Compound 11719, N-((5-(5-(difluoromethyl)-1,3,4-oxadiazol-2-yl)pyridin-2-yl)methyl)-3-(3,3-difluoropyrrolidin-1-yl)-N-phenylpropane-1-sulfonamide] | 1177 fold | 84.9 nM |
| O=S(=O)(CCCN1CCCC1)N(Cc1ccc(-c2nnc(C(F)F)o2)cn1)c1ccc(F)c(Cl)c1 [Compound 11721, N-(3-chloro-4-fluorophenyl)-N-((5-(5-(difluoromethyl)-1,3,4-oxadiazol-2-yl)pyridin-2-yl)methyl)-3-(pyrrolidin-1-yl)propane-1-sulfonamide] | 4739 fold | 21.1 nM |
| O=S(=O)(C1CCN([C@H]2CC[C@H](F)CC2)CC1)N(Cc1ccc(-c2nnc(C(F)F)o2)cc1)c1cccc(Cl)c1 [Compound 11725, N-(3-chlorophenyl)-N-(4-(5-(difluoromethyl)-1,3,4-oxadiazol-2-yl)benzyl)-1-((1r,4r)-4-fluorocyclohexyl)piperidine-4-sulfonamide] | 412 fold | 243 nM |
| O=S(=O)(C1CCN([C@H]2CC[C@@H](F)CC2)CC1)N(Cc1ccc(-c2nnc(C(F)F)o2)cc1)c1cccc(Cl)c1 [Compound 11726, N-(3-chlorophenyl)-N-(4-(5-(difluoromethyl)-1,3,4-oxadiazol-2-yl)benzyl)-1-((1s,4s)-4-fluorocyclohexyl)piperidine-4-sulfonamide] | 782 fold | 128 nM |
| CN1Cc2ccc(N(Cc3ccc(-c4nnc(C(F)F)o4)cc3)S(C)(=O)=O)cc2C1 [Compound 11729, N-(4-(5-(difluoromethyl)-1,3,4-oxadiazol-2-yl)benzyl)-N-(2-methylisoindolin-5-yl)methanesulfonamide] | 56 fold | 1760 nM |
| CC(C)N1Cc2ccc(N(Cc3ccc(-c4nnc(C(F)F)o4)cc3)S(C)(=O)=O)cc2C1 [Compound 11730, N-(4-(5-(difluoromethyl)-1,3,4-oxadiazol-2-yl)benzyl)-N-(2-isopropylisoindolin-5-yl)methanesulfonamide] | 39 fold | 2530 nM |
| CS(=O)(=O)N(Cc1ccc(-c2nnc(C(F)F)o2)cc1)c1ccc2c(c1)CN(C1COC1)C2 [Compound 11731, N-(4-(5-(difluoromethyl)-1,3,4-oxadiazol-2-yl)benzyl)-N-(2-(oxetan-3-yl)isoindolin-5-yl)methanesulfonamide] | 57 fold | 1750 nM |

Next, values leading:

| HDAC6 selectivity (fold) | IC50 | SMILES |
| --- | --- | --- |
| 14285 fold | 7 nM | O=S(=O)(C1CCN(C2COC2)CC1)N(Cc1ccc(-c2nnc(C(F)F)o2)cn1)c1cccc(Cl)c1 [Compound 11683, N-(3-chlorophenyl)-N-((5-(5-(difluoromethyl)-1,3,4-oxadiazol-2-yl)pyridin-2-yl)methyl)-1-(oxetan-3-yl)piperidine-4-sulfonamide] |
| 198 fold | 504 nM | Cc1cccc(N(Cc2ccc(-c3nnc(C(F)F)o3)cc2)S(=O)(=O)C2CCN(C3CC4CCC3C4)CC2)c1 (centres unmarked) [Compound 11693, 1-(bicyclo[2.2.1]heptan-2-yl)-N-(4-(5-(difluoromethyl)-1,3,4-oxadiazol-2-yl)benzyl)-N-(m-tolyl)piperidine-4-sulfonamide] |
| 776 fold | 129 nM | Cc1cccc(N(Cc2ccc(-c3nnc(C(F)F)o3)cc2)S(=O)(=O)C2CCN(C3CCOCC3)CC2)c1 [Compound 11699, N-(4-(5-(difluoromethyl)-1,3,4-oxadiazol-2-yl)benzyl)-1-(tetrahydro-2H-pyran-4-yl)-N-(m-tolyl)piperidine-4-sulfonamide] |
| 782 fold | 128 nM | O=S(=O)(CCN1CCCC(O)C1)N(Cc1ccc(-c2nnc(C(F)F)o2)cc1)c1ccccc1 (centres unmarked) [Compound 11700, N-(4-(5-(difluoromethyl)-1,3,4-oxadiazol-2-yl)benzyl)-2-(3-hydroxypiperidin-1-yl)-N-phenylethanesulfonamide] |
| 150 fold | 662 nM | O=S(=O)(CCCN1CCC(F)(F)C1)N(Cc1ccc(-c2nnc(C(F)F)o2)cc1)c1ccccc1 [Compound 11706, N-(4-(5-(difluoromethyl)-1,3,4-oxadiazol-2-yl)benzyl)-3-(3,3-difluoropyrrolidin-1-yl)-N-phenylpropane-1-sulfonamide] |
| 879 fold | 114 nM | O=S(=O)(CCN1CCN(CCO)CC1)N(Cc1ccc(-c2nnc(C(F)F)o2)cc1)c1ccccc1 [Compound 11717, N-(4-(5-(difluoromethyl)-1,3,4-oxadiazol-2-yl)benzyl)-2-(4-(2-hydroxyethyl)piperazin-1-yl)-N-phenylethanesulfonamide] |
| 1353 fold | 73.9 nM | O=S(=O)(CCCN1CCOCC1)N(Cc1ccc(-c2nnc(C(F)F)o2)cn1)c1ccccc1 [Compound 11718, N-((5-(5-(difluoromethyl)-1,3,4-oxadiazol-2-yl)pyridin-2-yl)methyl)-3-morpholino-N-phenylpropane-1-sulfonamide] |
| 1272 fold | 78.6 nM | O=S(=O)(CCCN1CCOCC1)N(Cc1ccc(-c2nnc(C(F)F)o2)cc1)c1ccc(F)c(Cl)c1 [Compound 11723, N-(3-chloro-4-fluorophenyl)-N-(4-(5-(difluoromethyl)-1,3,4-oxadiazol-2-yl)benzyl)-3-morpholinopropane-1-sulfonamide] |
